The results in this text go back to patent publication US20210138012A1, “COMPOSITION FOR PREVENTING, AMELIORATING, OR TREATING RESPIRATORY DISEASE COMPRISING SIRAITIA GROSVENORII EXTRACT AS EFFECTIVE COMPONENT” (KOREA INSTITUTE OF ORIENTAL MEDICINE, priority 2018, published 2021).

One data set concerns IL-4. Description: IL-4 production in BALF (ELISA), animal asthma model. The format is in vivo, Balb/c mouse. As to conditions: OVA-10 mg/kg. The method, then: (§1) Test was carried out by using an animal model which has been induced to have bronchial asthma by ovalbumin (OVA). As for the test animal, a 7-week old male Balb/c mouse was obtained from Jackson Laboratory (Bar Harbor, Me., USA), and used for the test after acclimation for 1 week. […] On day 3 and day 10 after intraperitoneally administering the first OVA, 2 mg of OVA were administered to the mouse via intratracheal injection. Then, from day 21 onwards for 4 weeks, the mouse was allowed to inhale OVA for 30 minutes by using a ultrasonic sprayer (NE-U12, Omron Co., Tokyo, Japan) (week 1 to week 3; exposed to 1% OVA, week 4; exposed to 2% OVA). Forty-eight hours after the last exposure to OVA, blood was taken from the anesthetized mouse, which was then subjected to autopsy to have observation of a pathological change. […]
(§2) Production amount of interleukins (IL-4, IL-5, and IL-13) in BALF separated from each test animal was measured by a commercially available kit for enzyme-linked immunosorbent assay (ELISA) (R&D System, USA). Analysis of each cytokine was carried out according to the experimental method provided by the manufacturer, and the absorbance at 450 nm was measured using an ELISA reader.

Another data set relates to IL-13. In words: IL-13 production in BALF (ELISA), animal asthma model. As to conditions: OVA-10 mg/kg. It is filed as in vivo, Balb/c mouse. The method, then: as §1, §2
For the next data set, the system named is IL-5. In words: IL-5 production in BALF (ELISA), animal asthma model. The format is in vivo, Balb/c mouse. As to conditions: OVA-10 mg/kg. The method, then: as §1, §2
The subject of another data set is TARC. Description: Inhibition of TARC secretion in TNF-α + IFN-γ + IL-4-treated BEAS-2B cells (ELISA). It is filed as cell-based. The settings on record: Homo sapiens, TNF-α + IFN-γ + IL-4, 24 hours, read-out: Inhibition rate (%) of TARC secretion. Here is the method: (§3) BEAS-2B cells (ATCC, USA), which are human bronchial epithelial cells, were cultured in Dulbecco's modified eagle medium (DMEM) added with fetal bovine serum (FBS) and penicillin-streptomycin (PS). BEAS-2B cells were cultured again for 18 hours in a 96-well plate (5×10^4 cells/well) containing DMEM 10% medium. The medium was subsequently removed and replaced with serum-free DMEM.
Meanwhile, to measure the secretion amount of TARC, BEAS-2B cells were simultaneously treated with TNF-α (50 ng/ml), IFN-γ (10 ng/ml), and IL-4 (50 ng/ml), and, after culture for 24 hours, the measurement was made by using ELISA kit (R&D systems, USA).

Another data set deals with RANTES. In words: Inhibition of RANTES secretion in TNF-α-treated BEAS-2B cells (ELISA). It is filed as cell-based. The settings on record: Homo sapiens, 10 ng/ml TNF-α, 24 hours, read-out: Inhibition rate (%) of RANTES secretion. The method, then:
as §3
After that, to measure the secretion amount of RANTES, the cells were simultaneously treated with a test sample and TNF-α (10 ng/ml) and cultured for 24 hours. Secretion amount of RANTES present in cell supernatant was measured by using ELISA kit (R&D systems, USA) according to the manufacturer's protocol. As a positive control group, 0.1 μM dexamethasone was used.

Data set [1] has as its system BEAS-2B pulmonary bronchial cells. Description: Cytotoxicity in BEAS-2B pulmonary bronchial cells using CCK-8. The format is cell-based, human. As to conditions: 0.1 μM. Here is the method: as §3

`CC(C)(O)c1ccccc1CC[C@@H](SCC1(CC(=O)O)CC1)c1cccc(/C=C/c2ccc3ccc(Cl)cc3n2)c1` [Montelukast, montelukast] registered an IL-4 in the data set on IL-4 of 60.37 ± 12.05 pg/mL. The compound further registered an IL-13 in the data set on IL-13 of 89.58 ± 9.46 pg/mL. For the same compound, in the data set with IL-5, the IL-5 is 27.91 ± 8.61 pg/mL.

For the compound `C[C@@H]1C[C@H]2[C@@H]3CCC4=CC(=O)C=C[C@]4(C)[C@@]3(F)[C@@H](O)C[C@]2(C)[C@@]1(O)C(=O)CO` [positive control group, dexamethasone], the inhibition at 0.1 µM worked out at 28.4 ± 8.77% in the data set with TARC and 97.1 ± 12.9% in the data set on RANTES. For the same compound, the “Cell viability (%)” value in data set [1] is 99.34 ± 0.14%.
